In paper PMC8238522 (Biochemical Journal, 2021) one finds EC50 data, which are given here for four compounds.

What all share (test): spectrophotometric NADH formation at […] nm, Hill fit
What all share (assay type): biochemical

Experiment [1] concerns the target T1, OsPGDH2 (Oryza sativa, UniProt B7FAD2).
T1 sequence (B7FAD2 64-621): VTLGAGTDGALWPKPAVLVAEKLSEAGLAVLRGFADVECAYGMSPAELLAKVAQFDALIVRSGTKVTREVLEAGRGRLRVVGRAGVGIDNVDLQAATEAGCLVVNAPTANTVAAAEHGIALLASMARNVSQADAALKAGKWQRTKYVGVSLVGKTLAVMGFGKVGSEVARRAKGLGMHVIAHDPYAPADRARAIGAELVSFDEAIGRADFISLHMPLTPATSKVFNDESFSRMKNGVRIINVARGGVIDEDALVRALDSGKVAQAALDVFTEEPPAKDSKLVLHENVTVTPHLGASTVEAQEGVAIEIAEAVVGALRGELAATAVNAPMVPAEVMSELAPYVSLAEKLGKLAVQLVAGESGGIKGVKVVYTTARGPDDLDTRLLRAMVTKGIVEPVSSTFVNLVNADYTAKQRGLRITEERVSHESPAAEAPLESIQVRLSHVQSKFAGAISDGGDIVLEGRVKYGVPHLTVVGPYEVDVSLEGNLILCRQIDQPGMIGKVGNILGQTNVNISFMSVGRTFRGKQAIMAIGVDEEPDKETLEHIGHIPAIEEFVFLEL

Experiment [2] addresses T2, OsPGDH1 (Oryza sativa, UniProt B7F6I8).
T2 sequence (B7F6I8 68-613): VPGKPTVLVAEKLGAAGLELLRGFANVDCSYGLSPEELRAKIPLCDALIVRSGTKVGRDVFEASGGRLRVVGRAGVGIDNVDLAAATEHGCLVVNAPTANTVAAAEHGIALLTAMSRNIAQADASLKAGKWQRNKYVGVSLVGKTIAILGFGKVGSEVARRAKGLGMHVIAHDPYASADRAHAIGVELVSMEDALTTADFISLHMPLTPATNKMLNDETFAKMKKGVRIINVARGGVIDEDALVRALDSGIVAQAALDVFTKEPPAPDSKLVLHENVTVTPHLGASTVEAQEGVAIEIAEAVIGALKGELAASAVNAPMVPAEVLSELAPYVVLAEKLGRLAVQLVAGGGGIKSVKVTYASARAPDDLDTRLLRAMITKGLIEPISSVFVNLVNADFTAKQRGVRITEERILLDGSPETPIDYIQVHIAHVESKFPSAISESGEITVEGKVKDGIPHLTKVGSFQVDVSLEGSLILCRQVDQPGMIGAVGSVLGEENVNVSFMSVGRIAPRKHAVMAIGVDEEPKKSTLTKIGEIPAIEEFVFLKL

The target in experiment [3] is T3, AmtriPGDH1 (Amborella trichopoda, UniProt U5D351).
T3 sequence (U5D351 73-618): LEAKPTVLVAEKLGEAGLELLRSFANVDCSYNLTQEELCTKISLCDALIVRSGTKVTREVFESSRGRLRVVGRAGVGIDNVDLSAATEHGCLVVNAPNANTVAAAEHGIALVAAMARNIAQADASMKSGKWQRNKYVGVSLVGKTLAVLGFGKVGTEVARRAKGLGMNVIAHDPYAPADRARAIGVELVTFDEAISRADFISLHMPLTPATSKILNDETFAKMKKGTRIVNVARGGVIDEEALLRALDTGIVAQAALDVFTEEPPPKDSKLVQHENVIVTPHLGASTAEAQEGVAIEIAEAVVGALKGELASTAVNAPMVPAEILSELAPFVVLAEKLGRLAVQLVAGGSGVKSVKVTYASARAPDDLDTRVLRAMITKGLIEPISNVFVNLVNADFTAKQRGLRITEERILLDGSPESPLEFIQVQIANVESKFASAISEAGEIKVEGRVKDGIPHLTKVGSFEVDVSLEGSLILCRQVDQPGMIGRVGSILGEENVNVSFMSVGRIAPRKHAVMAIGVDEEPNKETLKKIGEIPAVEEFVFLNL

Take `C[C@H](N)C(=O)O` [L-Alanine]: the midpoint of the response in experiment [1], the EC50, lay at 950 ± 40 µM.
Regarding `N[C@@H](CCS)C(=O)O` [L-Homocysteine], the EC50 in experiment [2] stood at 33 ± 3 µM; in experiment [3] it was 20 ± 2 µM.
For `CSCC[C@H](N)C(=O)O` [L-Methionine], the results for the EC50 in experiment [2] and in experiment [3] were 640 ± 30 µM and 750 ± 50 µM, respectively.
In the case of `N[C@@H](CO)C(=O)O` [L-Serine], the results for the EC50 in experiment [2] and in experiment [3] were 6400 ± 600 µM and 1200 ± 100 µM, respectively.
